Source: patent US5861477A (priority 1996, dated 1999)
“Also recorded” adds a separate entry of the source. Where two headings read alike, the source gives them in different places. Bridges are numbered along the chain shown (N, C = ends). Where no end group is shown, it is not given here.

How the values were obtained:
TrPepz = TrPepz (synthetic cyclic peptide catalyst mimicking the active site of trypsin); details: up to 3 hrs
[1] = Chymotryptic activity: hydrolysis of BTEE; format: biochemical; details: in words
Method: Chymotryptic activity. The catalytic activity of αCT and CHPepz was determined by hydrolysis of BTEE in 0.08M Tris buffer, pH 7.8 containing 0.01M CaCl2 as described (Hummel, B. C. W. (1959) Can. J. Biochem. Physiol. 37, 1393-1399). Assays were done at 25° C. using 8.06×10^-4 μmoles of αCT or 7.49×10^-4 μmoles of ChPepz and different substrate concentrations (from 3 to 6 mM) in a total reaction volume of 1.0 ml. The change of absorbance at 256 nm was monitored on a recording spectrophotometer against a reference cuvette containing 1 ml of the same concentration of BTEE, but without αCT or ChPepz.
1.0 ml of substrate (BTEE) was mixed with solutions (10 μl aliquots) of ChPepz, or negative control peptides (containing 1-10 μg/10 μl) or αCT and activity was monitored by increase in absorbance at 256 nm at 37° C. (or at room temperature).
ChPepz solution was made in 10^-3 N HCl, since it will not digest itself in this solvent. Solutions of ChPepz were always made immediately before use. […] After mixing ChPepz with substrate (BTEE), there was typically a lag of 2-5 min (depending on pepzyme/substrate ratio) before any change in A256 was observed. However, in the early stages of the purification, the activity needed to be monitored over a period of several hours. It was important to ensure that negative controls (containing unrelated peptides in amounts similar to those of ChPepz in the test samples) were also monitored at the same time because the background absorbance will increase and the test samples had to be corrected for this background. As the sample's purity improves, maximum A256 was achieved more quickly. See, e.g., Atassi, M. Z. in Immunochemistry of Proteins, ed. […]
Tryptic activity. […] Kinetic constants for hydrolysis of BTEE and TAME were determined from the linear plots of 1/initial velocity (Vi in μmoles/min) versus 1/substrate concentration as described (Lineweaver, H. and Burk, D. (1934) J. Amer. Chem. Soc. 56, 658).
Inhibition of Enzymatic Activity. […] Activities were monitored spectrophotometrically as above and were compared to uninhibited controls. […]

[2] = Tryptic activity: hydrolysis of TAME; format: biochemical; details: for Km / kcat / kcat /Km: hydrolysis of TAME, pH 8.0 and 25° C.
Method: Tryptic activity. Measurement of tryptic activity was done in 0.046M Tris-HCl buffer, pH 8.0, containing 0.0115M CaCl2 as described (Hummel, B. C. W. (1959), id) using TAME as the substrate. For the assays, 8.4×10^-4 μmoles of […] or 1.6 c 10^-3 μmoles of TrPepz were allowed to hydrolyze different amounts of substrate at 25° C. in a total reaction volume of 1.0 ml. […] Kinetic constants for hydrolysis of BTEE and TAME were determined from the linear plots of 1/initial velocity (Vi in μmoles/min) versus 1/substrate concentration as described (Lineweaver, H. and Burk, D. (1934) J. Amer. Chem. Soc. 56, 658).
To TAME solutions (1 ml containing different amounts of substrate), an aliquot (10 μl) of TrPepz, or negative control peptide solutions (containing 1-10 μg/10 μl) was added, mixed immediately and the increase of absorbance at 247 nm was measured at 37° C. (or at room temperature).
TrPepz solutions were always made immediately before use. Although TrPepz has no potential tryptic cleavage points, it lost activity on standing in solution at 4° C. […] TrPepz will not act on chromogenic substrates--it was inhibited by p-nitro analine (and probably is inhibited by other aromatic amines). After mixing TrPepz with substrate, there was a lag of 2-5 minutes (depending on pepzyme/substrate ratio) before any change in A247 was observed. In the early stages of the purification, the activity was always monitored over a period of several hours. Negative controls (containing unrelated peptides in amounts similar to those of TrPepz in the test samples) were also monitored at the same time because the background absorbance will increase and the test samples had to be corrected for this background. As the sample's purity improved, maximum A247 was achieved more quickly.
Inhibition of Enzymatic Activity. The effects of inhibitors or disulfide bond reduction on enzymatic activities were done as described above except that the enzymes were pre-mixed (3 hrs, 25° C.) with 10 molar excess of inhibitor (or DTT) prior to addition to the substrate (140-150 molar excess relative to the catalyst). Activities were monitored spectrophotometrically as above and were compared to uninhibited controls.
In addition, test were performed which compared the activity of the two proteases under differing temperature parameters.

myoglobin and casein = test: Hydrolysis of proteins by enzymes or peptide enzyme catalysts (peptide maps); format: biochemical, sperm-whale (myoglobin), bovine (casein)
Method: Hydrolysis of Proteins by Enzymes or Peptide Enzyme Catalysts. Hydrolyses were done at 37° C. on aliquots (200 μl) containing 1 mg of myoglobin (5.6×10-2 μmoles) or casein (4.2×10^-2 μmoles) in 0.1M triethylamine-acetic acid buffer, pH 8.0 with 51 μg of αCT (2.06×10^-3 μmoles) and 2.9 μg of ChPepz (1.1×10^-3 μmoles) for 31/2 hrs or with 49 μg trypsin (2.06×10^-3 μmoles) and 5.0 μg TrPepz (1.87×10^-3 μmoles) for 8 hrs. The samples were then acidified (to pH 3.0) with 0.1M HCl freeze-dried and redissolved in 100 μl of H2 O at pH 3.0, and the entire sample was applied as a single spot to Whatman No. 3MM paper and subjected, in the first dimension, to ascending chromatography in n-butanol-acetic acid-water (4:1:5, vol/vol) followed by high voltage electrophoresis (3000 volts, 55 min), in the second dimension, in pyridine-acetic acid-water (1:10:289, vol/vol), pH 3.65, as described (Atassi, M. Z. and Saplin, B. J. (1968) Biochemistry 7, 688-698). The papers were then dried, steamed and stained with 0.2% ninhydrin in ethanol and the color was allowed to develop at room temperature. The papers were photographed 48 hrs after staining.

[3] = test system: model peptides (SEQ ID NO:7-10); test: Action of TrPepz on model peptides; format: biochemical
[4] = Loss of pepzyme activity on storage in solution and on freezing and thawing; format: physicochemical
Method: ChPepz solution was made in 10^-3 N HCl, since it will not digest itself in this solvent. Solutions of ChPepz were always made immediately before use. […] After mixing ChPepz with substrate (BTEE), there was typically a lag of 2-5 min (depending on pepzyme/substrate ratio) before any change in A256 was observed. However, in the early stages of the purification, the activity needed to be monitored over a period of several hours. It was important to ensure that negative controls (containing unrelated peptides in amounts similar to those of ChPepz in the test samples) were also monitored at the same time because the background absorbance will increase and the test samples had to be corrected for this background. As the sample's purity improves, maximum A256 was achieved more quickly. See, e.g., Atassi, M. Z. in Immunochemistry of Proteins, ed. M. Z. Atassi, Vol. 2, pp. 77-176, Plenum, New York, N.Y. (1977); King, D. S., et al. Int. J. Pept. Prot. Res. 36: 255-266 (1990).
TrPepz solutions were always made immediately before use. […] In the early stages of the purification, the activity was always monitored over a period of several hours. Negative controls (containing unrelated peptides in amounts similar to those of TrPepz in the test samples) were also monitored at the same time because the background absorbance will increase and the test samples had to be corrected for this background. […]

[5] = TAME, pH 8.0 and 25° C., cited from earlier work

DNYRGYSLG
cleaved bond (TrPepz): Arg-Gly

QLEPSTSSAVPLIGKG
cleaved bond (TrPepz): Lys-Gly

cyclo(-S-cystinyl-glycyl-tyrosyl-histidyl-phenylalanyl-glycyl-glycyl-seryl- aspartyl-glycyl-glutamyl-glycyl-seryl-aspartyl-glycyl-glycyl-valyl-seryl-tryptophanyl-glycyl-leucyl-glycyl-glycyl-aspartyl-glycyl-alanyl-alanyl-histidyl-cystinyl-S) (CGYHFGGSDGEGSDGGVSWGLGGDGAAHC; disulfide 1-29) [TrPepz]
hydrolytic activity on BTEE [1]: zero activity; also recorded: no effect; also recorded: not hydrolyzed; also recorded: not hydrolysed
activity on TAME after reduction of the disulfide bond (cyclic structure) ([2]; 10 molar excess of DTT): zero activity; also recorded: fully inactivated; also recorded: completely lost
activity on TAME in presence of TPCK ([2]; 10 molar excess of TPCK): the two curves superimposed; also recorded: not by TPCK; also recorded: not affected
activity on TAME in presence of BPTI ([2]; 10 molar excess of inhibitor): zero activity; also recorded: completely inhibited; also recorded: inhibited entirely
activity on TAME in presence of DIFP ([2]; 10 molar excess of inhibitor): zero activity; also recorded: fully inactivated; also recorded: inhibited entirely; also recorded: completely inhibited
activity on TAME in presence of PMSF ([2]; 10 molar excess of inhibitor): zero activity; also recorded: fully inactivated; also recorded: inhibited entirely; also recorded: completely inhibited
activity on TAME in presence of human α1 -antitrypsin ([2]; 10 molar excess of inhibitor): zero activity; also recorded: completely inhibited; also recorded: inhibited entirely
activity on TAME in presence of soybean trypsin inhibitor ([2]; 10 molar excess of inhibitor): completely inhibited; also recorded: inhibited entirely
% Activity of Native Enzyme at 35° C. ([2]; Temp. 10): 7.4%
% Activity of Native Enzyme at 35° C. ([2]; Temp. 35): approx. 40%
% Activity of Native Enzyme at 35° C. ([2]; Temp. 48): approx. 50%
lag before any change in A247 ([2]; after mixing with substrate, depends on pepzyme/substrate ratio): 2 to 5 min
Km [2]: 2420 ± 90 µM
kcat [2]: 85 ± 2.6 sec.^-1
kcat /Km [2]: 35000 M⁻¹ s⁻¹
rate of TAME hydrolysis relative to the rate obtained with the enzyme itself ([2]; relative to trypsin): about 40%
inhibition by p-nitro analine ([2]; will not act on chromogenic substrates): inhibited
hydrolysis of myoglobin and casein, peptides compared with those of the respective enzyme (myoglobin and casein; 37° C., pH 8.0, 3 1/2 hrs (ChPepz) or 8 hrs (TrPepz)): essentially the same as the pattern of the respective protein obtained by tryptic hydrolysis
proteolytic activity in presence of DIFP (myoglobin and casein; protein substrates): completely inhibited
proteolytic activity in presence of PMSF (myoglobin and casein; protein substrates): completely inhibited
proteolytic activity in presence of TPCK (myoglobin and casein; protein substrates): no effect
efficiency at hydrolyzing Lys-Lys, Lys-Lys-Lys, Arg-Lys and Lys-Arg bonds compared with trypsin (myoglobin and casein; yields of lysine and arginine in hydrolysates): more efficient than trypsin
hydrolysis of the Lys-Gly bond of peptide SEQ ID NO:7 ([3]; 3 hrs, molar ratio of substrate/TrPepz, 1:60): over 95%
cleavage of lysozyme sequences SEQ ID NO:8, 9, 10 at the C-bond of lysine and arginine ([3]; no other products): completely cleaved
freezing and thawing cycles to complete loss of activity [4]: 5 cycles
time to complete loss of activity on storage in solution ([4]; 4° C.): two

B1: Trypsin: native bovine trypsin (TPCK-trypsin, Worthington), positive control (protein, UniProt P00760 24-246, looked up)
Serine protease 1: IVGGYTCGANTVPYQVSLNSGYHFCGGSLINSQWVVSAAHCYKSGIQVRLGEDNINVVEGNEQFISASKSIVHPSYNSNTLNNDIMLIKLKSAASLNSRVASISLPTSCASAGTQCLISGWGNTKSSGTSYPDVLKCLKAPILSDSSCKSAYPGQITSNMFCAGYLEGGKDSCQGDSGGPVVCSGKLQGIVSWGSGCAQKNKPGVYTKVCNYVSWIKQTIASN
modifications: TPCK-treated
notes: native bovine trypsin (TPCK-trypsin, Worthington), positive control
hydrolytic activity on BTEE [1]: zero activity; also recorded: does not hydrolyze
hydrolytic activity on BTEE ([1]; listed as trypsin): not hydrolysed
% Activity of Native Enzyme at 35° C. ([2]; Temp. 10): 4.5%
% Activity of Native Enzyme at 35° C. ([2]; Temp. 35): 100%
% Activity of Native Enzyme at 35° C. ([2]; Temp. 48): 67%
Km [2]: 2560 ± 160 µM
kcat [2]: 221 ± 9.7 sec.^-1
kcat /Km [2]: 86000 M⁻¹ s⁻¹
kcat ([2]; listed as trypsin): 221 sec.^-1
hydrolytic activity on TAME ([2]; in words): hydrolyzes
Km ([5]; Lorand et al. 1961, read-out: Km reported value): 2760 µM
kcat reported value ([5]; Martin et al. 1959): 187 s⁻¹
